Source: PubChem BioAssay AID1918998 (Molecular Pharmacology Branch, DTP, NCI, 2023)

Tested on: 521955-158-R2-J5-PDC complex spheroid growth
Test: Anticancer human tumor 521955-158-R2-J5-PDC patient-derived pancreatic carcinoma cell line growth inhibition [AhR]
Conditions: for IC50: curve of first compound; for viability, T/C: stronger effect = lower value
How it was run: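 Agents were dosed in half-log steps down from roughly clinical Cmax, or from 10 microM where Cmax was unknown, alone and with AhR antagonists. Read-out: percent test/control growth of tumor spheroids containing HUVEC and MSC stromal cells.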

[1] = second compound 0.1 µM, first compound 0.00316 µM
[2] = second compound 0.1 µM, first compound 0.01 µM
[3] = second compound 0.1 µM, first compound 0.0316 µM
[4] = second compound 0.1 µM, first compound 0.1 µM
[5] = second compound 0.1 µM, first compound 0.316 µM
[6] = second compound 0.1 µM, first compound 1 µM
[7] = second compound 0.316 µM, first compound 0.00316 µM
[8] = second compound 0.316 µM, first compound 0.01 µM
[9] = second compound 0.316 µM, first compound 0.0316 µM
[10] = second compound 0.316 µM, first compound 0.1 µM
[11] = second compound 0.316 µM, first compound 0.316 µM
[12] = second compound 0.316 µM, first compound 1 µM
[13] = second compound 1 µM, first compound 0.00316 µM
[14] = second compound 1 µM, first compound 0.01 µM
[15] = second compound 1 µM, first compound 0.0316 µM
[16] = second compound 1 µM, first compound 0.1 µM
[17] = second compound 1 µM, first compound 0.316 µM
[18] = second compound 1 µM, first compound 1 µM
[19] = second compound 3.16 µM, first compound 0.00316 µM
[20] = second compound 3.16 µM, first compound 0.01 µM
[21] = second compound 3.16 µM, first compound 0.0316 µM
[22] = second compound 3.16 µM, first compound 0.1 µM
[23] = second compound 3.16 µM, first compound 0.316 µM
[24] = second compound 3.16 µM, first compound 1 µM
[25] = second compound 10 µM, first compound 0.00316 µM
[26] = second compound 10 µM, first compound 0.01 µM
[27] = second compound 10 µM, first compound 0.0316 µM
[28] = second compound 10 µM, first compound 0.1 µM
[29] = second compound 10 µM, first compound 0.316 µM
[30] = second compound 10 µM, first compound 1 µM
[31] = second compound 0.1 µM, first compound 3.16 µM
[32] = second compound 0.1 µM, first compound 10 µM
[33] = second compound 0.316 µM, first compound 3.16 µM
[34] = second compound 0.316 µM, first compound 10 µM
[35] = second compound 1 µM, first compound 3.16 µM
[36] = second compound 1 µM, first compound 10 µM
[37] = second compound 3.16 µM, first compound 3.16 µM
[38] = second compound 3.16 µM, first compound 10 µM
[39] = second compound 10 µM, first compound 3.16 µM
[40] = second compound 10 µM, first compound 10 µM
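Throughout, for viability, T/C: spheroids mix tumor cells with HUVEC endothelium and human MSC stroma; luminescence taken as viability surrogate after a week of drug exposure.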

Row | SMILES | IC50 (second compound 0.1 µM) [nM] | IC50 (second compound 0.316 µM) [nM] | IC50 (second compound 1 µM) [nM] | IC50 (second compound 3.16 µM) [nM] | IC50 (second compound 10 µM) [nM] | viability, T/C [3] [%] | viability, T/C [4] [%] | viability, T/C [5] [%] | viability, T/C [6] [%] | viability, T/C [9] [%] | viability, T/C [10] [%] | viability, T/C [11] [%] | viability, T/C [12] [%] | viability, T/C [15] [%] | viability, T/C [16] [%] | viability, T/C [17] [%] | viability, T/C [21] [%] | viability, T/C [22] [%] | viability, T/C [27] [%] | viability, T/C [28] [%] | also measured
1 | CC1COCCN1c1cc(-c2ccnn2C)c2ccnc(-c3ccn[nH]3)c2n1 (stereo not given) + Cc1cncc(-c2nc(NCCc3c[nH]c4ccccc34)c3ncn(C(C)C)c3n2)c1 | 116 | 136 | 87.4 | 132 | 88.8 | 106 | 55.6 | 12.8 | 16.2 | 117 | 63.3 | 12.4 | 12.7 | 121 | 41.6 | 15.7 | 145 | 61.1 | 105 | 45.2 | viability, T/C [1]: 112%; viability, T/C [2]: 109%; viability, T/C [7]: 113%; viability, T/C [8]: 130%; viability, T/C [13]: 94.7%; viability, T/C [14]: 123%; viability, T/C [18]: 13.1%; viability, T/C [19]: 176%; viability, T/C [20]: 167%; viability, T/C [23]: 13.6%; viability, T/C [24]: 19.1%; viability, T/C [25]: 127%; viability, T/C [26]: 134%; viability, T/C [29]: 8.85%; viability, T/C [30]: 12.9%
2 | CC[C@@]1(O)C(=O)OCc2c1cc1n(c2=O)Cc2cc3c(CN(C)C)c(O)ccc3nc2-1 + CC(CO)NC(=O)c1cc(-c2ccc(Cl)cc2)nn(-c2cnn(C)c2)c1=O | 32.3 | 36.7 | 28 | 22 | 19.9 | 51.8 | 16 | – | – | 57.4 | 13.3 | – | – | 46.1 | 20.1 | – | 38.3 | 19.2 | 35.3 | 17.9 | viability, T/C (second compound 0.1 µM, first compound 0.000316 µM): 99.8%; viability, T/C (second compound 0.1 µM, first compound 0.001 µM): 91.6%; viability, T/C [1]: 110%; viability, T/C [2]: 82.5%; viability, T/C (second compound 0.316 µM, first compound 0.000316 µM): 112%; viability, T/C (second compound 0.316 µM, first compound 0.001 µM): 109%; viability, T/C [7]: 89.8%; viability, T/C [8]: 82.5%; viability, T/C (second compound 1 µM, first compound 0.000316 µM): 93%; viability, T/C (second compound 1 µM, first compound 0.001 µM): 104%; viability, T/C [13]: 106%; viability, T/C [14]: 86.5%; viability, T/C (second compound 3.16 µM, first compound 0.000316 µM): 99.2%; viability, T/C (second compound 3.16 µM, first compound 0.001 µM): 102%; viability, T/C [19]: 91.8%; viability, T/C [20]: 75.4%; viability, T/C (second compound 10 µM, first compound 0.000316 µM): 76.5%; viability, T/C (second compound 10 µM, first compound 0.001 µM): 86.3%; viability, T/C [25]: 85.6%; viability, T/C [26]: 71.6%
3 | COc1cccc2c1C(=O)c1c(O)c3c(c(O)c1C2=O)CC(O)(C(=O)CO)CC3OC1CC(N)C(O)C(C)O1 (stereo not given) + Cc1ccccc1N=Nc1ccc(NC(=O)c2ccnn2C)c(C)c1 | < 31.6 | 36.9 | 42.1 | < 31.6 | 165 | 40.6 | 34.4 | 28.5 | 6.16 | 53.9 | 33.6 | 34 | 7.86 | 55 | 34.9 | 30.1 | 55.6 | 39.9 | 89.7 | 63 | viability, T/C [31]: 2.14%; viability, T/C [32]: 9.5%; viability, T/C [33]: 3.02%; viability, T/C [34]: 11.5%; viability, T/C [18]: 4.75%; viability, T/C [35]: 2.47%; viability, T/C [36]: 11.2%; viability, T/C [23]: 34.3%; viability, T/C [24]: 6.42%; viability, T/C [37]: 4.98%; viability, T/C [38]: 9.42%; viability, T/C [29]: 34.4%; viability, T/C [30]: 3.83%; viability, T/C [39]: 2.39%; viability, T/C [40]: 7.28%
4 | CC1(C)CCC(CN2CCN(c3ccc(C(=O)NS(=O)(=O)c4ccc(NCC5CCOCC5)c([N+](=O)[O-])c4)c(Oc4cnc5[nH]ccc5c4)c3)CC2)=C(c2ccc(Cl)cc2)C1 + Cc1ccccc1N=Nc1ccc(NC(=O)c2ccnn2C)c(C)c1 | > 10000 | > 10000 | > 10000 | > 10000 | > 10000 | 114 | 140 | 96.5 | 102 | 110 | 99.9 | 116 | 108 | 120 | 144 | 133 | 135 | 155 | 166 | 162 | viability, T/C [31]: 104%; viability, T/C [32]: 103%; viability, T/C [33]: 107%; viability, T/C [34]: 96%; viability, T/C [18]: 116%; viability, T/C [35]: 98.8%; viability, T/C [36]: 94.5%; viability, T/C [23]: 165%; viability, T/C [24]: 119%; viability, T/C [37]: 130%; viability, T/C [38]: 84.6%; viability, T/C [29]: 158%; viability, T/C [30]: 151%; viability, T/C [39]: 108%; viability, T/C [40]: 72.6%
